Measurements as given in PubChem BioAssay (NCI).
Where “and” joins values, the source holds several entries; their conditions need not be identical. Equal values may be shown once.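 Growth conditions: 96-well plates. Treatment: test compound, 48 hours, 5 concentrations. Analysis: linear interpolation between bracketing concentrations; unreached endpoints set to highest concentration. GI50: concentration for 50% inhibition of growth. At the TGI there is no net growth.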

Key:
Assay in all cases: inhibition of tumour cell growth, NCI panel, 48 h
M14 melanoma = system: M14 melanoma
SK-MEL-5 melanoma = system: SK-MEL-5 melanoma
MOLT-4 leukemia = system: MOLT-4 leukemia
OVCAR-3 ovarian = system: OVCAR-3 ovarian
MCF7 breast = system: MCF7 breast
HCT-15 colon = system: HCT-15 colon
SNB-19 CNS = system: SNB-19 CNS
SW-620 colon = system: SW-620 colon
SF-295 CNS = system: SF-295 CNS
COLO 205 colon = system: COLO 205 colon

Compound	TGI (M14 melanoma)	TGI (SK-MEL-5 melanoma)	TGI (MOLT-4 leukemia)	TGI (OVCAR-3 ovarian)	TGI (MCF7 breast)	TGI (HCT-15 colon)	TGI (SNB-19 CNS)	TGI (SW-620 colon)	TGI (SF-295 CNS)	TGI (COLO 205 colon)	GI50 (M14 melanoma)	GI50 (SK-MEL-5 melanoma)	GI50 (OVCAR-3 ovarian)	GI50 (HCT-15 colon)	GI50 (SW-620 colon)	GI50 (SF-295 CNS)	GI50 (COLO 205 colon)	GI50 (MOLT-4 leukemia)	GI50 (MCF7 breast)	GI50 (SNB-19 CNS)
COc1ccc2[nH]c3c([N+](=O)[O-])ccc(Cl)c3c(=O)c2c1	35.9 µM	55.2 µM	12.8 µM	31.7 µM	> 84.8 µM	40.8 µM	> 80.9 µM	42.8 µM	> 100 µM	32.7 µM										
O=Nc1ccc(O)c2ncccc12	20.7 µM	19.7 µM	> 100 µM	12.4 µM	16.6 µM	12.9 µM	74.7 µM	18.2 µM	36 µM	30.6 µM										
CCN=C=NCCCN(C)C	> 100 µM	> 100 µM	> 100 µM	> 100 µM	> 100 µM	> 100 µM	> 100 µM	> 100 µM	> 100 µM	> 100 µM										
C/C1=N\NC(=O)c2ccccc2C(=O)N/N=C(\C)c2cccc1n2.O=[N+]([O-])[O-].[Zn+2]	> 100 µM	> 100 µM	> 100 µM	> 100 µM		> 100 µM	> 100 µM	> 100 µM	> 100 µM	> 100 µM										
N=C(N)c1ccc(-c2ccc(-c3cncc4ccccc34)s2)cc1F	3.4 µM	3.26 µM		3.24 µM		3.64 µM		3.76 µM	3.27 µM	3.94 µM	1.8 µM	1.75 µM	1.73 µM	1.75 µM	1.69 µM	1.72 µM	1.87 µM			
OC(Cc1ccccc1)(Cc1ccccc1)c1ccccc1	33.3 µM	32.5 µM	> 100 µM	32.8 µM		50.4 µM	67.9 µM	52.2 µM	34.9 µM											
Nc1ccc(OCC(O)N2C(=O)c3ccccc3C2=O)cc1 (centres undefined)	> 100 µM	> 100 µM	> 100 µM	> 100 µM	> 100 µM	> 100 µM	> 100 µM	> 100 µM	> 100 µM	> 100 µM										
O=S(=O)(O)c1cc(N=Nc2cc(S(=O)(=O)O)c3ccccc3c2O)ccc1/C=C/c1ccc(N=Nc2cc(S(=O)(=O)O)c3ccccc3c2O)cc1S(=O)(=O)O	> 355 µM	239 µM	51.1 µM and 82.5 µM	> 1000 µM	> 1000 µM	> 727 µM	> 1000 µM	> 1000 µM	> 731 µM	> 380 µM				186 µM				36.3 µM		
COc1cc(C(C)(C)C)cc(OC)c1C(O)(c1c(OC)cc(C(C)(C)C)cc1OC)c1c(OC)cc(C(C)(C)C)cc1OC	1.13 µM	0.552 µM		0.894 µM				1.55 µM	0.479 µM	0.34 µM	0.381 µM	0.236 µM	0.278 µM		0.406 µM	0.221 µM	0.188 µM			
C=C(CN(C)C)C(=O)c1ccc(C)cc1C	14.5 µM	28.8 µM	2.25 µM	21.3 µM	13.9 µM	12.5 µM	57.7 µM	13.5 µM	31.6 µM	11.3 µM										
Cc1ccc(P(c2ccc(C)cc2)c2ccc(C)cc2)cc1	50.3 µM	33.1 µM	44.5 µM	29.5 µM	> 100 µM	> 100 µM	> 100 µM	> 100 µM	> 100 µM	44.6 µM										
CC(C)(C)C1(c2ccc(C3(c4ccccc4)Oc4ccccc4S3)[nH]2)Oc2ccccc2S1 (centres undefined)	> 100 µM	> 100 µM	> 100 µM	> 100 µM		> 100 µM	> 100 µM	> 100 µM	> 100 µM											
O=C(O)CC(C(=O)O)C1c2ccccc2-c2ccccc21 (centres undefined)	> 100 µM	> 100 µM	> 100 µM	> 100 µM	> 100 µM	> 100 µM	> 100 µM	> 100 µM	> 100 µM	> 100 µM										
COC1/C=C\OC2(C)Oc3c(C)c(O)c4c(O)c(c(/C=N\OCCCc5ccccc5)c(O)c4c3C2=O)NC(=O)/C(C)=C\C=C/C(C)C(O)C(C)C(O)C(C)C(OC(C)=O)C1C (centres undefined)	6.76 µM	3.55 µM	10.5 µM	9.61 µM	5.6 µM	11 µM	19.7 µM	18 µM	16.3 µM	4.12 µM										
c1ccc(-n2cnnc2-c2nsc3ccccc23)cc1	> 100 µM	> 100 µM	> 100 µM	> 100 µM		> 100 µM	> 100 µM	> 100 µM		> 100 µM										
Nc1cc(S(=O)(=O)O)cc2cc(S(=O)(=O)O)c(N=Nc3ccc(-c4ccc(N=Nc5c(S(=O)(=O)O)cc6cc(S(=O)(=O)O)cc(N)c6c5O)cc4)cc3)c(O)c12		> 100 µM	> 100 µM	> 100 µM	> 100 µM	> 100 µM	> 100 µM	> 100 µM	> 100 µM	> 100 µM										
O=[N+]([O-])c1ccc(/C=N\Nc2ccc([N+](=O)[O-])cn2)cc1	> 100 µM	> 100 µM	> 100 µM	> 100 µM	> 100 µM	> 100 µM	> 100 µM	> 100 µM	> 100 µM	> 100 µM										
C=C(C)[C@@H]1CC[C@]2(C(=O)Nc3ccccn3)CC[C@]3(C)[C@H](CC[C@@H]4[C@@]5(C)CCCNC(C)(C)[C@@H]5CC[C@]43C)[C@@H]12				2.92 µM	3.07 µM	3.09 µM	4.26 µM	3.51 µM	3.07 µM				1.54 µM	1.61 µM	1.75 µM	1.68 µM			1.48 µM	1.98 µM
CCN(CC)C(=S)SC(=S)N(CC)CC	> 100 µM	> 46.5 µM	> 72.8 µM	> 94.4 µM	> 100 µM	> 100 µM	> 100 µM	> 100 µM	> 100 µM	45 µM										
Nc1nc(N)c2ncn(-c3ccc(Cl)c(Cl)c3)c2n1	> 100 µM	> 100 µM	42.5 µM	44.1 µM	> 100 µM	> 100 µM	> 100 µM	> 100 µM	69.6 µM	28.7 µM										
C=C(C)C(=O)OC1C(C(C)CCCO)=C(CO)CC2OC(=O)C(=C)C21 (centres undefined)	33.8 µM	28.5 µM	88.9 µM	54.5 µM	24.1 µM	26.9 µM	> 100 µM	28.8 µM	> 100 µM	29.3 µM										
C=C(C)C1CC2=C(O1)C(=O)c1ccccc1C2=O (centres undefined)	33.1 µM	28.1 µM	32.8 µM	34.4 µM		33.2 µM	96.6 µM	48.4 µM		37.4 µM										
COc1ccc(-c2nn(-c3ccc(NC(=O)Nc4ccc(Cl)c(Cl)c4)cc3)cc2-c2ccncc2)cc1Cl	5.04 µM	5.96 µM	> 100 µM	> 100 µM	9.34 µM	> 100 µM	> 100 µM	> 100 µM	> 100 µM	5.27 µM	1.79 µM	2.26 µM	2.64 µM	1.7 µM	3.31 µM	2.21 µM	2.19 µM	1.89 µM	2.37 µM	3.36 µM
CC(C)=CCc1c(O)ccc2c1OC1c3ccc(O)c(CC=C(C)C)c3OCC21 (centres undefined)		17.8 µM	16 µM	27 µM	16.9 µM	18.1 µM	27.6 µM	22.5 µM	24.3 µM	33 µM										
